Measured values reported in patent US10245275B2 (ViiV HEALTHCARE UK (NO.4) LIMITED, priority 2014, dated 2019).
Read-outs that look alike come from different tables or passages of the source.

How the values were obtained:
[1] = test system: WT (wild-type HIV virus; recombinant NL4-3 virus); test: microbe, parasite or virus in culture; assay type: cell-based, HIV-1
Protocol: (§1) MT-2 cells and 293T cells were obtained from the NIH AIDS Research and Reference Reagent Program. MT-2 cells were propagated in RPMI 1640 media supplemented with 10% heat-inactivated fetal bovine serum, […]. The 293T cells were propagated in DMEM media supplemented with 10% heat-inactivated fetal bovine serum (FBS), 100 units/mL penicillin G and 100 μg/mL streptomycin. […] A recombinant NL4-3 virus, in which a section of the nef gene from NL4-3 was replaced with the Renilla luciferase gene, was used as a reference virus. In addition, residue Gag P373 was converted to P373S. […] Transfections were performed in 293T cells using LipofectAMINE PLUS from Invitrogen (Carlsbad, Calif.), according to manufacturer's instruction. The virus was titered in MT-2 cells using luciferase enzyme activity as a marker. Luciferase was quantitated using the Dual Luciferase kit from Promega (Madison, Wis.), with modifications to the manufacturer's protocol. The diluted Passive Lysis solution was pre-mixed with the re-suspended Luciferase Assay Reagent and the re-suspended Stop & Glo Substrate (2:1:1 ratio). Fifty (50) μL of the mixture was added to each aspirated well on assay plates and luciferase activity was measured immediately on a Wallac TriLux (Perkin-Elmer). Antiviral activities of inhibitors toward the recombinant virus were quantified by measuring luciferase activity in cells infected for 4-5 days with NLRluc recombinants in the presence serial dilutions of the inhibitor.
WT refers to wild-type HIV virus. […]

[2] = test system: HIV-1 NL4-3 gag A364V virus; test: microbe, parasite or virus in culture; assay type: cell-based
Protocol: as §1
Both recombinant viruses were used as described above in the HIV cell culture assay for the NL4-3 virus.

[3] = Human immunodeficiency virus 1, NL43, MT2, read-out: WT (EC50, uM), Table 1 regular screen, MT-2 cells, luciferase readout
[4] = Human immunodeficiency virus 1, NL43, MT2, read-out: A364V (EC50, uM), Table 1 regular screen, MT-2 cells, luciferase readout
[5] = Human immunodeficiency virus 1, NL43, MT2, read-out: WT (EC50, uM), Table 1 regular screen, class symbol
[6] = Human immunodeficiency virus 1, NL43, MT2, read-out: A364V (EC50, uM), Table 1 regular screen, class symbol

SMILES: C=C(C)[C@@H]1CC[C@]2(NCCS(=O)(=O)CCN3CCS(=O)(=O)CC3)CC[C@]3(C)[C@H](CC[C@@H]4[C@@]5(C)CC=C(C6=CC[C@](CF)(C(=O)O)CC6)C(C)(C)[C@@H]5CC[C@]43C)[C@@H]12 [Example 43, (S)-4-((1R,3aS,5aR,5bR,7aR,11aS,11bR,13aR,13bR)-3a-((2-((2-(1,1-dioxidothiomorpholino)ethyl)sulfonyl)ethyl)amino)-5a,5b,8,8,11a-pentamethyl-1-(prop-1-en-2-yl)-2,3,3a,4,5,5a,5b,6,7,7a,8,11,11a,11b,12,13,13a,13b-octadecahydro-1H-cyclopenta[a]chrysen-9-yl)-1-(fluoromethyl)cyclohex-3-enecarboxylic acid]
- EC50 [1, 3]: 0.00335 µM
- EC50 [2, 4]: 0.585 µM

SMILES: C=C(C)[C@@H]1CC[C@]2(NCC[C@]3(O)CC[C@@](C)(O)CC3)CC[C@]3(C)[C@H](CC[C@@H]4[C@@]5(C)CC=C(C6=CC[C@](CF)(C(=O)O)CC6)C(C)(C)[C@@H]5CC[C@]43C)[C@@H]12 [Example 2-18, (S)-4-((1R,3aS,5aR,5bR,7aR,11aS,11bR,13aR,13bR)-3a-((2-((cis)-1,4-dihydroxy-4-methylcyclohexyl)ethyl)amino)-5a,5b,8,8,11a-pentamethyl-1-(prop-1-en-2-yl)-2,3,3a,4,5,5a,5b,6,7,7a,8,11,11a,11b,12,13,13a,13b-octadecahydro-1H-cyclopenta[a]chrysen-9-yl)-1-(fluoromethyl)cyclohex-3-enecarboxylic acid]
- EC50 [1, 3]: 0.00165 µM
- EC50 [2, 4]: 0.854 µM

SMILES: C=C(C)[C@@H]1CC[C@]2(NCC[C@]3(O)CC[C@H](S(C)(=O)=O)CC3)CC[C@]3(C)[C@H](CC[C@@H]4[C@@]5(C)CC=C(C6=CC[C@](CF)(C(=O)O)CC6)C(C)(C)[C@@H]5CC[C@]43C)[C@@H]12 [Example 2-21, (S)-1-(fluoromethyl)-4-((1R,3aS,5aR,5bR,7aR,11aS,11bR,13aR,13bR)-3a-((2-((trans)-1-hydroxy-4-(methylsulfonyl)cyclohexyl)ethyl)amino)-5a,5b, 8,8,11a-pentamethyl-1-(prop-1-en-2-yl)-2,3,3a,4,5,5a,5b,6,7,7a,8,11,11a,11b,12,13,13a,13b-octadecahydro-1H-cyclopenta[a]chrysen-9-yl)cyclohex-3-enecarboxylic acid]
- EC50 [1, 5]: < 0.05 µM
- EC50 [2, 6]: > 0.05 µM

SMILES: C=C(C)[C@@H]1CC[C@]2(NCCN3CCS(=O)(=O)CC(C)C3)CC[C@]3(C)[C@H](CC[C@@H]4[C@@]5(C)CC=C(C6=CC[C@](CF)(C(=O)O)CC6)C(C)(C)[C@@H]5CC[C@]43C)[C@@H]12 (stereo partly drawn) [Example 27, (1S)-1-(fluoromethyl)-4-((1R,3aS,5aR,5bR,7aR,11aS,11bR,13aR,13bR)-5a,5b,8,8,11a-pentamethyl-3a-((2-(6-methyl-1,1-dioxido-1,4-thiazepan-4-yl)ethyl)amino)-1-(prop-1-en-2-yl)-2,3,3a,4,5,5a,5b,6,7,7a,8,11,11a,11b,12,13,13a,13b-octadecahydro-1H-cyclopenta[a]chrysen-9-yl)cyclohex-3-enecarboxylic acid]
- EC50 [1, 5]: < 0.05 µM
- EC50 [2, 6]: > 0.05 µM

SMILES: C=C(C)[C@@H]1CC[C@]2(NCCCN3CCCC3=O)CC[C@]3(C)[C@H](CC[C@@H]4[C@@]5(C)CC=C(C6=CC[C@](CF)(C(=O)O)CC6)C(C)(C)[C@@H]5CC[C@]43C)[C@@H]12 [Example 21, (S)-1-(fluoromethyl)-4-((1R,3aS,5aR,5bR,7aR,11aS,11bR,13aR,13bR)-5a,5b,8,8,11a-pentamethyl-3a-((3-(2-oxopyrrolidin-1-yl)propyl)amino)-1-(prop-1-en-2-yl)-2,3,3a,4,5,5a,5b,6,7,7a,8,11,11a,11b,12,13,13a,13b-octadecahydro-1H-cyclopenta[a]chrysen-9-yl)cyclohex-3-enecarboxylic acid]
- EC50 [1, 5]: < 0.05 µM
- EC50 [2, 6]: > 0.05 µM

SMILES: C=C(C)[C@@H]1CC[C@]2(C(=O)NCCN3CCS(=O)(=O)CC3)CC[C@]3(C)[C@H](CC[C@@H]4[C@@]5(C)CC=C(C6=CC[C@@](CF)(C(=O)O)CC6)C(C)(C)[C@@H]5CC[C@]43C)[C@@H]12 [Example 38, (R)-4-((1R,3aS,5aR,5bR,7aR,11aS,11bR,13aR,13bR)-3a-((2-(1,1-dioxidothiomorpholino)ethyl)carbamoyl)-5a,5b,8,8,11a-pentamethyl-1-(prop-1-en-2-yl)-2,3,3a,4,5,5a,5b,6,7,7a,8,11,11a,11b,12,13,13a,13b-octadecahydro-1H-cyclopenta[a]chrysen-9-yl)-1-(fluoromethyl)cyclohex-3-enecarboxylic acid]
- EC50 [1, 5]: < 0.05 µM
- EC50 [2, 6]: < 0.05 µM

SMILES: CC(C)[C@@H]1CC[C@]2(NCCN3CCS(=O)(=O)CC3)CC[C@]3(C)[C@H](CC[C@@H]4[C@@]5(C)CC=C(C6=CC[C@@](CF)(C(=O)O)CC6)C(C)(C)[C@@H]5CC[C@]43C)[C@@H]12 [Example 22, (R)-4-((1S,3aS,5aR,5bR,7aR,11aS,11bR,13aR,13bR)-3a-((2-(1,1-dioxidothiomorpholino)ethyl)amino)-1-isopropyl-5a,5b, 8,8,11a-pentamethyl-2,3,3a,4,5,5a,5b,6,7,7a,8,11,11a,11b,12,13,13a,13b-octadecahydro-1H-cyclopenta[a]chrysen-9-yl)-1-(fluoromethyl)cyclohex-3-enecarboxylic acid]
- EC50 [1, 3]: 0.00134 µM
- EC50 [2, 4]: 0.0513 µM

SMILES: C=C(C)[C@@H]1CC[C@]2(NCCO)CC[C@]3(C)[C@H](CC[C@@H]4[C@@]5(C)CC=C(C6=CC[C@@](CF)(C(=O)O)CC6)C(C)(C)[C@@H]5CC[C@]43C)[C@@H]12 [Example 19, (R)-1-(fluoromethyl)-4-((1R,3aS,5aR,5bR,7aR,11aS,11bR,13aR,13bR)-3a-((2-hydroxyethyl)amino)-5a,5b,8,8,11a-pentamethyl-1-(prop-1-en-2-yl)-2,3,3a,4,5,5a,5b,6,7,7a,8,11,11a,11b,12,13,13a,13b-octadecahydro-1H-cyclopenta[a]chrysen-9-yl)cyclohex-3-enecarboxylic acid]
- EC50 ([1]; Human immunodeficiency virus 1, NL43, MT2, read-out: WT (EC50, uM)): < 0.05 µM
- EC50 ([2]; Human immunodeficiency virus 1, NL43, MT2, read-out: A364V (EC50, uM)): > 0.05 µM

SMILES: C=C(C)[C@@H]1CC[C@]2(NCCN3CCOCC3)CC[C@]3(C)[C@H](CC[C@@H]4[C@@]5(C)CC=C(C6=CC[C@](CF)(C(=O)O)CC6)C(C)(C)[C@@H]5CC[C@]43C)[C@@H]12 [Example 3, (S)-1-(fluoromethyl)-4-((1R,3aS,5aR,5bR,7aR,11aS,11bR,13aR,13bR)-5a,5b,8,8,11a-pentamethyl-3a-((2-morpholinoethyl)amino)-1-(prop-1-en-2-yl)-2,3,3a,4,5,5a,5b,6,7,7a,8,11,11a,11b,12,13,13a,13b-octadecahydro-1H-cyclopenta[a]chrysen-9-yl)cyclohex-3-enecarboxylic acid]
- EC50 [1, 3]: 0.00453 µM
- EC50 [2, 4]: 0.679 µM

SMILES: C=C(C)[C@@H]1CC[C@]2(NCCN3CCN(C)C3=O)CC[C@]3(C)[C@H](CC[C@@H]4[C@@]5(C)CC=C(C6=CC[C@](CF)(C(=O)O)CC6)C(C)(C)[C@@H]5CC[C@]43C)[C@@H]12 [Example 2-26, (S)-1-(fluoromethyl)-4-((1R,3aS,5aR,5bR,7aR,11aS,11bR,13aR,13bR)-5a,5b,8,8,11a-pentamethyl-3a-((2-(3-methyl-2-oxoimidazolidin-1-yl)ethyl)amino)-1-(prop-1-en-2-yl)-2,3,3a,4,5,5a,5b,6,7,7a,8,11,11a,11b,12,13,13a,13b-octadecahydro-1H-cyclopenta[a]chrysen-9-yl)cyclohex-3-enecarboxylic acid]
- EC50 [1, 5]: < 0.05 µM
- EC50 [2, 6]: > 0.05 µM

SMILES: C=C(C)[C@@H]1CC[C@]2(NCCN3CCS(=O)(=O)CC3C(=O)OCC)CC[C@]3(C)[C@H](CC[C@@H]4[C@@]5(C)CC=C(C6=CC[C@@](CF)(C(=O)O)CC6)C(C)(C)[C@@H]5CC[C@]43C)[C@@H]12 (single isomer, unassigned) [Example 14]
- EC50 [1, 5]: < 0.05 µM
- EC50 [2, 6]: < 0.05 µM

SMILES: C=C(C)[C@@H]1CC[C@]2(NCC(=O)N3CCC(S(C)(=O)=O)CC3)CC[C@]3(C)[C@H](CC[C@@H]4[C@@]5(C)CC=C(C6=CC[C@](CF)(C(=O)O)CC6)C(C)(C)[C@@H]5CC[C@]43C)[C@@H]12 [Example 31, (S)-1-(fluoromethyl)-4-((1R,3aS,5aR,5bR,7aR,11aS,11bR,13aR,13bR)-5a,5b, 8,8,11a-pentamethyl-3a-((2-(4-(methylsulfonyl)piperidin-1-yl)-2-oxoethyl)amino)-1-(prop-1-en-2-yl)-2,3,3a,4,5,5a,5b,6,7,7a,8,11,11a,11b,12,13,13a,13b-octadecahydro-1H-cyclopenta[a]chrysen-9-yl)cyclohex-3-enecarboxylic acid]
- EC50 [1, 5]: < 0.05 µM
- EC50 [2, 6]: > 0.05 µM
